pIC50: −log10 of the molar value. Like-named read-outs stand apart in the source and are kept apart here.
What was measured:
[1] = target: T1, calcium release by IP3 (IP3 receptor) (Mus musculus, UniProt P11881); test: Inhibitory activity against calcium release by IP3 (cerebellum microsomes, fura2); type: biochemical
T1 construct: from tissue; host or cells: mouse cerebellum microsomes
Protocol: Furthermore, the supernatant was centrifuged (105,000 g, for 60 minutes). […] Then IP3 was added thereto, and the released calcium was measured by the measurement of the fluorescence of 500 nm obtained at 2-wavelength excitation of 340 nm and 380 nm, and the fluorescence ratio F=340/380.
(§1) 2-aminoethyl diphenylborinate was used as a comparative compound.

[2] = test system: capacitative calcium entry in cell strain deficient of IP3 receptors produced from DT40; test: Inhibitory activity against capacitative calcium entry (fura-2 fluorescence ratio); type: cell-based, chickens; conditions: Gallus gallus
Protocol: Fura-2 acetoxymethylester was introduced to the cell strain deficient of IP3 receptors produced from the cultivated cell strain DT40 from chickens. The intracellular calcium concentration was measured by the measurement of the fluorescence of 510 nm obtained at 2-wavelength excitation of 340 nm and 380 nm, and its fluorescence ratio F=340/380.
Intracellular calcium store was depleted by activating tapsigalguine (inhibitor of the endoplasmic reticulum calcium pump) without the presence of the calcium ion in the extracellular fluid.
as §1

[3] = mouse cerebellum microsomes, calcium released with 30 nM of IP3 defined as 100%, read-out: IC50
[4] = increase rate of intracellular calcium concentration on adding 2 mM calcium chloride after store depletion with tapsigalguine, IP3 receptor-deficient DT40 cells, read-out: IC50

T1 sequence (P11881 whole entry): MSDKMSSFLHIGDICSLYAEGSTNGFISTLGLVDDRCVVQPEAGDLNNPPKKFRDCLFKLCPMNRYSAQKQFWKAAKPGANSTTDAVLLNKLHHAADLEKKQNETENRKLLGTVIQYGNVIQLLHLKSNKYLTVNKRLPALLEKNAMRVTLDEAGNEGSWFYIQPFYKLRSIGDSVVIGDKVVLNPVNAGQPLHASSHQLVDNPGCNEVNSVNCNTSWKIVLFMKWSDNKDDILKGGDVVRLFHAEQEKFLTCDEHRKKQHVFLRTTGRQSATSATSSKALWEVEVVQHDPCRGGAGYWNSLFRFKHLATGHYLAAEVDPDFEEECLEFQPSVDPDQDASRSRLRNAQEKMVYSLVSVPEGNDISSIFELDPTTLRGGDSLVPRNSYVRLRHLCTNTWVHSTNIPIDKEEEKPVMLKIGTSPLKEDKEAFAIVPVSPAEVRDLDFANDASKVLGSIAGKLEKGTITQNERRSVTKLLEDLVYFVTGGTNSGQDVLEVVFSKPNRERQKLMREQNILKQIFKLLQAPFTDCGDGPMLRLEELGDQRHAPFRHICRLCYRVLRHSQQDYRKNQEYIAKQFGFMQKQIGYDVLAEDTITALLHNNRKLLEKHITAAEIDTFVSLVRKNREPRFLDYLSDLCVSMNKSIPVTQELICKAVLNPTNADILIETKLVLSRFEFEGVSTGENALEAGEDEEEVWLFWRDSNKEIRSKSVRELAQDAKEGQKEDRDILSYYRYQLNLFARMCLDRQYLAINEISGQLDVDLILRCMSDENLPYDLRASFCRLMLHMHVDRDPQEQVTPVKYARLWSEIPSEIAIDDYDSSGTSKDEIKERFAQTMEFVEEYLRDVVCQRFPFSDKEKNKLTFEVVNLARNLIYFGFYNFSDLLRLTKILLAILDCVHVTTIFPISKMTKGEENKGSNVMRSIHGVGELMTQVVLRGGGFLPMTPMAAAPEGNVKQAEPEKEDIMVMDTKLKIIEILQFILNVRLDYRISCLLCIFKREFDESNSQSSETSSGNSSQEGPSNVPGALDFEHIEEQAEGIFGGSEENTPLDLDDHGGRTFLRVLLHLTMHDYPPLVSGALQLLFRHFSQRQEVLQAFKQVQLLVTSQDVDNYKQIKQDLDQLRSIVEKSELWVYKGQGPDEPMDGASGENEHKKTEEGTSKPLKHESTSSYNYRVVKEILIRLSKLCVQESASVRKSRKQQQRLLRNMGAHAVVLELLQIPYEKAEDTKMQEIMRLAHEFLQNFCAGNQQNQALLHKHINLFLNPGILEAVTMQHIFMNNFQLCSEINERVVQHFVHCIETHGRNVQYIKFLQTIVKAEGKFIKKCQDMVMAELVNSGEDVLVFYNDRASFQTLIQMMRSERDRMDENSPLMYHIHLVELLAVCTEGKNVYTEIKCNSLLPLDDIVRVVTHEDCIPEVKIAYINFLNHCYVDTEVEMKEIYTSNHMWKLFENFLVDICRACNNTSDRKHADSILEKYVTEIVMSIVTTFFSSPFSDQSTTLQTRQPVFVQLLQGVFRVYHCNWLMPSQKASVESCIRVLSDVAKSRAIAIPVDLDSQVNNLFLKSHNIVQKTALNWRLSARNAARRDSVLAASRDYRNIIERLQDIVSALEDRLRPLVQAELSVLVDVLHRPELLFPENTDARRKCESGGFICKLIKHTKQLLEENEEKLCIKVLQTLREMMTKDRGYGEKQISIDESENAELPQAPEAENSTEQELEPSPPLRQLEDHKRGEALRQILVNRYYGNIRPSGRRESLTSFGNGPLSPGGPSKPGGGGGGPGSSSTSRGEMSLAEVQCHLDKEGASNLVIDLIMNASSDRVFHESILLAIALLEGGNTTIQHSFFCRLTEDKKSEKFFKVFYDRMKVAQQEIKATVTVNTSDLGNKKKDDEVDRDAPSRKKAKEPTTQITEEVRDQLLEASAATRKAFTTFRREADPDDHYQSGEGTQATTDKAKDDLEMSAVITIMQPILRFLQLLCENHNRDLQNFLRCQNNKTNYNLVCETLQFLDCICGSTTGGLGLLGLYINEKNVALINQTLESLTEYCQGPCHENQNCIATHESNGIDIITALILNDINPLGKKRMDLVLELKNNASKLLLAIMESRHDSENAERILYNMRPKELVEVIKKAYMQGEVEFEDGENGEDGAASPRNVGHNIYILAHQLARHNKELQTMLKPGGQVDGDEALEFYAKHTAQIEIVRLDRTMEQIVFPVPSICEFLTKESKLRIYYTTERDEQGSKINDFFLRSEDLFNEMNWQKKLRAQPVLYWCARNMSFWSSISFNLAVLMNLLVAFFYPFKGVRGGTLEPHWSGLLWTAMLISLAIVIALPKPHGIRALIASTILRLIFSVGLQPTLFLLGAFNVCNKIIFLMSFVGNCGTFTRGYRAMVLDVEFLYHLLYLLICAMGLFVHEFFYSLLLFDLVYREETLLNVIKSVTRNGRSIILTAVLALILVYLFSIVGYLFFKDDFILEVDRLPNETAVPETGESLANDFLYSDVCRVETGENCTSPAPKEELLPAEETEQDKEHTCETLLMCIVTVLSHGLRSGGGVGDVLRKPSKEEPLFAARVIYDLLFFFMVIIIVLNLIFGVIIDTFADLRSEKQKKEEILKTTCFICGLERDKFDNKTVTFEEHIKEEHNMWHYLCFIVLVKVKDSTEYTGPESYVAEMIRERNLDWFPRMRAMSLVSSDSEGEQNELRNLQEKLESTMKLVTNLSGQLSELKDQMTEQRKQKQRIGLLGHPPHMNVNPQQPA

Row | SMILES | pIC50 [1, 3] | pIC50 [2, 4] | also measured
1 | OB(c1ccc(Cl)cc1)c1ccc(COCc2ccccc2)cc1 [(3), (4-chlorophenyl)(4-benzyloxymethylphenyl)borate] | 5.52 | – | –
2 | NCCOB(C1CCCC1)C1CCCC1 [(25), 2-aminoethyl dicyclopentylborate] | – | 6.18 | –
3 | CCOC(=O)N1CCC(NCC(OB(c2ccc(C)c(Cl)c2)c2ccc(C)c(Cl)c2)c2ccccc2)CC1 (stereo not shown) [(47), 1-phenyl-2-(1-(ethoxycarbonyl)-piperidine-4-ylamino)ethyl bis(3-chloro-4-methylphenyl)borate] | 5.42 | – | –
4 | Cc1ccc(B(OC(CN(C)C)CN(C)C)c2ccc(C)c(Cl)c2)cc1Cl [(60), 1-(dimethylaminomethyl)-2-dimethylaminoethyl bis(3-chloro-4-methylphenyl)borate] | – | 6.46 | –
5 | Cc1ccc(B(OC(c2ccc(C(F)(F)F)cc2)c2ccccn2)c2ccc(C)c(Cl)c2)cc1Cl (stereo not shown) [(62), 1-(4-trifluoromethylphenyl)-1-(2-pyridyl)methyl bis(3-chloro-4-methylphenyl)borate] | – | 6.89 | –
6 | NCCOB(c1ccccc1)c1ccccc1 [Comparative Compound, 2-aminoethyl diphenylborinate, reference compound] | – | – | pIC50 ([2]; DT40): 5.30; pIC50 [1]: 4.70

Second part, led by results:

Row | pIC50 [1, 3] | pIC50 [2, 4] | SMILES | also measured
7 | 5.59 | – | Cc1ccc(B(OCCN)c2ccc(C)c(Cl)c2)cc1Cl [(30), 2-aminoethyl bis(3-chloro-4-methylphenyl)borate] | –
8 | 5.35 | – | CC(C)(C)c1ccc(B(OCCN)c2ccc(Cl)cc2)cc1 [(84), 2-aminoethyl (4-chlorophenyl)(4-(1,1′-dimethylethyl)phenyl)borate] | –
9 | 5.44 | 6.20 | Cc1ccc(B(OC(C)c2ccccn2)c2ccc(C)c(Cl)c2)cc1Cl (stereo not shown) [Compound (53), 1-(2-pyridyl)ethyl bis(3-chloro-4-methylphenyl)borate] | –
10 | 5.22 | 7.23 | NCCOB(c1ccccc1)c1ccc(COCc2ccc(B(OCCN)c3ccccc3)cc2)cc1 [Compound (90), bis[4-[(2-aminoethoxy)phenylboryl]benzyl]ether] | –

From patent US7217701B2, “Intracellular calcium concentration increase inhibitors” (Katsuhiko Mikoshiba, priority 2001, dated 2007)
